Here are results for ten molecules from ChEMBL document CHEMBL3045589, “Aromatic amino analogues of artemisinin: synthesis and in vivo antimalarial activity” (2010).

Broadly, the ED50 is the midpoint of the dose-response relation.

The test system of the test is Plasmodium yoelii nigeriensis. The experiment in a line: Antimalarial activity against Plasmodium yoelii nigeriensis infected in po-dosed Swiss albino mouse assessed as inhibition of parasite growth administered qd for 4 days. Conditions: 96 h. It counts as functional.
On to `CCN(CC)Cc1cc(NC2O[C@@H]3O[C@@]4(C)CC[C@H]5[C@H](C)CC[C@H]([C@@]35OO4)[C@]2(C)Br)ccc1O` (stereo not given in full), for which the ED50 was found to be 12.3 mg/kg and the ED90 worked out at 24.2 mg/kg.

Take `C[C@@H]1CC[C@@H]2[C@]34OO[C@](C)(CC[C@@H]13)O[C@H]4OC(Nc1ccc(O)c(CN3CCCCC3)c1)[C@@]2(C)Br` (stereo not given in full): the ED50 was 11.3 mg/kg and the ED90 was 23.1 mg/kg.

As for `C[C@@H]1CC[C@@H]2[C@]34OO[C@](C)(CC[C@@H]13)O[C@H]4OC(Nc1ccc(O)c(CN3CCNCC3)c1)[C@@]2(C)Br` (stereo not given in full), the ED50 worked out at 12.4 mg/kg and the ED90 came to 24.6 mg/kg.

Consider `C[C@@H]1CC[C@@H]2[C@]34OO[C@](C)(CC[C@@H]13)O[C@H]4OC(Nc1ccc(O)c(CN3CCN(C)CC3)c1)[C@@]2(C)Br` (stereo not given in full), for which the ED50 came to 9.9 mg/kg and the ED90 turned out to be 17.4 mg/kg.

For `CCN1CCN(Cc2cc(NC3O[C@@H]4O[C@@]5(C)CC[C@H]6[C@H](C)CC[C@H]([C@@]46OO5)[C@]3(C)Br)ccc2O)CC1` (stereo not given in full), the ED50 was 9.83 mg/kg and the ED90 came to 16.6 mg/kg.

As to `C[C@@H]1CC[C@@H]2[C@]34OO[C@](C)(CC[C@@H]13)O[C@H]4OC(Nc1ccc(O)c(CN3CCN(c4ccccc4)CC3)c1)[C@@]2(C)Br` (stereo not given in full), the ED50 was determined as 5.41 mg/kg and the ED90 came out at 8.72 mg/kg.

As to `C[C@@H]1CC[C@@H]2[C@]34OO[C@](C)(CC[C@@H]13)O[C@H]4OC(Nc1ccc(O)c(CN3CCN(c4cccc(C(F)(F)F)c4)CC3)c1)[C@@]2(C)Br` (stereo not given in full), the ED50 was found to be 6.01 mg/kg and the ED90 is 9.28 mg/kg.

For the molecule `C[C@@H]1CC[C@@H]2[C@]34OO[C@](C)(CC[C@@H]13)O[C@H]4OC(Nc1ccc(O)c(CN3CCN(c4ccccn4)CC3)c1)[C@@]2(C)Br` (stereo not given in full), the ED50 stood at 7.9 mg/kg and the ED90 turned out to be 12.2 mg/kg.

For `C[C@@H]1CC[C@@H]2[C@]34OO[C@](C)(CC[C@@H]13)O[C@H]4OC(Nc1ccc(O)c(CN3CCN(Cc4ccccc4)CC3)c1)[C@@]2(C)Br` (stereo not given in full), the ED50 stood at 7.12 mg/kg and the ED90 was 12.1 mg/kg.

On to `C[C@@H]1CC[C@H]2[C@@H](C)C(=O)O[C@@H]3O[C@@]4(C)CC[C@@H]1[C@]32OO4` [ARTEMISININ], for which the ED50 came out at 16.4 mg/kg and the ED90 is 27.1 mg/kg.
